In PubChem BioAssay AID1259407 (Chemical Carcinogenesis Research Information System (CCRIS), 2018):
Calls of active or inactive are those of the source. No rule for the calls is given here.

Test system: CCRIS mutagenicity, Ames/micronucleus/aberration tests
Assay: CCRIS mutagenicity studies
[1] = Test System: AMES SALMONELLA TYPHIMURIUM, Strain/Indicator: TA98, Metabolic Activation: NONE, Method: PREINCUBATION
[2] = Test System: AMES SALMONELLA TYPHIMURIUM, Strain/Indicator: TA100, Metabolic Activation: NONE, Method: PREINCUBATION
[3] = Test System: AMES SALMONELLA TYPHIMURIUM, Strain/Indicator: TA1535, Metabolic Activation: NONE, Method: PREINCUBATION

## CCCCCOc1cccc(NC(=O)O[C@@H]2CCCC[C@H]2N2CCCC2)c1
Test System: AMES SALMONELLA TYPHIMURIUM, Strain/Indicator: TA98, Metabolic Activation: MOUSE, LIVER, S-9, AROCLOR 1254, Method: PREINCUBATION
  mutagenic call: inactive; negative
[1]
  mutagenic call: inactive; negative
Test System: AMES SALMONELLA TYPHIMURIUM, Strain/Indicator: TA100, Metabolic Activation: MOUSE, LIVER, S-9, AROCLOR 1254, Method: PREINCUBATION
  mutagenic call: inactive; negative
[2]
  mutagenic call: inactive; negative
Test System: AMES SALMONELLA TYPHIMURIUM, Strain/Indicator: TA1535, Metabolic Activation: MOUSE, LIVER, S-9, AROCLOR 1254, Method: PREINCUBATION
  mutagenic call: inactive; negative
[3]
  mutagenic call: inactive; negative
Test System: AMES SALMONELLA TYPHIMURIUM, Strain/Indicator: TA1538, Metabolic Activation: MOUSE, LIVER, S-9, AROCLOR 1254, Method: PREINCUBATION
  mutagenic call: inactive; negative
Test System: AMES SALMONELLA TYPHIMURIUM, Strain/Indicator: TA1538, Metabolic Activation: NONE, Method: PREINCUBATION
  mutagenic call: inactive; negative
Test System: AMES SALMONELLA TYPHIMURIUM, Strain/Indicator: TA1978, Metabolic Activation: MOUSE, LIVER, S-9, AROCLOR 1254, Method: PREINCUBATION
  mutagenic call: inactive; negative
Test System: AMES SALMONELLA TYPHIMURIUM, Strain/Indicator: TA1978, Metabolic Activation: NONE, Method: PREINCUBATION
  mutagenic call: inactive; negative
Test System: E. COLI, Strain/Indicator: CM611 UVRA/LEXA, Metabolic Activation: MOUSE, LIVER, S-9, AROCLOR 1254, Method: PREINCUBATION
  mutagenic call: inactive; negative
Test System: E. COLI, Strain/Indicator: CM611 UVRA/LEXA, Metabolic Activation: NONE, Method: PREINCUBATION
  mutagenic call: inactive; negative
Test System: E. COLI, Strain/Indicator: WP2, Metabolic Activation: MOUSE, LIVER, S-9, AROCLOR 1254, Method: PREINCUBATION
  mutagenic call: inactive; negative
Test System: E. COLI, Strain/Indicator: WP2, Metabolic Activation: NONE, Method: PREINCUBATION
  mutagenic call: inactive; negative
Test System: E. COLI, Strain/Indicator: WP2 UVRA, Metabolic Activation: MOUSE, LIVER, S-9, AROCLOR 1254, Method: PREINCUBATION
  mutagenic call: inactive; negative
Test System: E. COLI, Strain/Indicator: WP2 UVRA, Metabolic Activation: NONE, Method: PREINCUBATION
  mutagenic call: inactive; negative
Test System: E. COLI, Strain/Indicator: WP67 UVRA/POLA, Metabolic Activation: MOUSE, LIVER, S-9, AROCLOR 1254, Method: PREINCUBATION
  mutagenic call: inactive; negative
Test System: E. COLI, Strain/Indicator: WP67 UVRA/POLA, Metabolic Activation: NONE, Method: PREINCUBATION
  mutagenic call: inactive; negative

## CC(CN1c2ccccc2Sc2ccccc21)N(C)C (stereo unspecified)
End Point: IN VITRO CHROMOSOMAL ABERRATIONS, Test System: CHINESE HAMSTER OVARY CELLS, Metabolic Activation: NONE
  mutagenic call: inactive; negative
End Point: IN VITRO CHROMOSOMAL ABERRATIONS, Test System: CHINESE HAMSTER OVARY CELLS, Metabolic Activation: RAT, LIVER, S-9, AROCLOR 1254
  mutagenic call: inactive; negative
Test System: AMES SALMONELLA TYPHIMURIUM, Strain/Indicator: TA97, Metabolic Activation: HAMSTER, LIVER, S-9, AROCLOR 1254 (10 OR 30%), Method: PREINCUBATION
  mutagenic call: inactive; negative
Test System: AMES SALMONELLA TYPHIMURIUM, Strain/Indicator: TA97, Metabolic Activation: NONE, Method: PREINCUBATION
  mutagenic call: inactive; negative
Test System: AMES SALMONELLA TYPHIMURIUM, Strain/Indicator: TA97, Metabolic Activation: RAT, LIVER, S-9, AROCLOR 1254 (10 OR 30%), Method: PREINCUBATION
  mutagenic call: inactive; negative
Test System: AMES SALMONELLA TYPHIMURIUM, Strain/Indicator: TA98, Metabolic Activation: HAMSTER, LIVER, S-9, AROCLOR 1254 (10%), Method: PREINCUBATION
  mutagenic call: inactive; negative
Test System: AMES SALMONELLA TYPHIMURIUM, Strain/Indicator: TA98, Metabolic Activation: HAMSTER, LIVER, S-9, AROCLOR 1254 (30%), Method: PREINCUBATION
  mutagenic call: inactive; negative
[1]
  mutagenic call: inactive; negative
Test System: AMES SALMONELLA TYPHIMURIUM, Strain/Indicator: TA98, Metabolic Activation: NONE, Method: SPOT TEST
  mutagenic call: inactive; negative
Test System: AMES SALMONELLA TYPHIMURIUM, Strain/Indicator: TA98, Metabolic Activation: RAT, LIVER, S-9, AROCLOR 1254 (10%), Method: PREINCUBATION
  mutagenic call: inactive; negative
Test System: AMES SALMONELLA TYPHIMURIUM, Strain/Indicator: TA98, Metabolic Activation: RAT, LIVER, S-9, AROCLOR 1254 (30%), Method: PREINCUBATION
  mutagenic call: inactive; negative
Test System: AMES SALMONELLA TYPHIMURIUM, Strain/Indicator: TA100, Metabolic Activation: HAMSTER, LIVER, S-9, AROCLOR 1254 (10%), Method: PREINCUBATION
  mutagenic call: inactive; negative
Test System: AMES SALMONELLA TYPHIMURIUM, Strain/Indicator: TA100, Metabolic Activation: HAMSTER, LIVER, S-9, AROCLOR 1254 (30%), Method: PREINCUBATION
  mutagenic call: inactive; negative
[2]
  mutagenic call: inactive; negative
Test System: AMES SALMONELLA TYPHIMURIUM, Strain/Indicator: TA100, Metabolic Activation: RAT, LIVER, S-9, AROCLOR 1254 (10%), Method: PREINCUBATION
  mutagenic call: inactive; negative
Test System: AMES SALMONELLA TYPHIMURIUM, Strain/Indicator: TA100, Metabolic Activation: RAT, LIVER, S-9, AROCLOR 1254 (30%), Method: PREINCUBATION
  mutagenic call: inactive; negative
Test System: AMES SALMONELLA TYPHIMURIUM, Strain/Indicator: TA1535, Metabolic Activation: HAMSTER, LIVER, S-9, AROCLOR 1254 (10%), Method: PREINCUBATION
  mutagenic call: inactive; negative
Test System: AMES SALMONELLA TYPHIMURIUM, Strain/Indicator: TA1535, Metabolic Activation: HAMSTER, LIVER, S-9, AROCLOR 1254 (30%), Method: PREINCUBATION
  mutagenic call: inactive; negative
[3]
  mutagenic call: inactive; negative
Test System: AMES SALMONELLA TYPHIMURIUM, Strain/Indicator: TA1535, Metabolic Activation: RAT, LIVER, S-9, AROCLOR 1254 (10%), Method: PREINCUBATION
  mutagenic call: inactive; negative
Test System: AMES SALMONELLA TYPHIMURIUM, Strain/Indicator: TA1535, Metabolic Activation: RAT, LIVER, S-9, AROCLOR 1254 (30%), Method: PREINCUBATION
  mutagenic call: inactive; negative
Test System: AMES SALMONELLA TYPHIMURIUM, Strain/Indicator: TA1537, Metabolic Activation: HAMSTER, LIVER, S-9, AROCLOR 1254 (10%), Method: PREINCUBATION
  mutagenic call: inactive; negative
Test System: AMES SALMONELLA TYPHIMURIUM, Strain/Indicator: TA1537, Metabolic Activation: NONE, Method: PREINCUBATION
  mutagenic call: inactive; negative
Test System: AMES SALMONELLA TYPHIMURIUM, Strain/Indicator: TA1537, Metabolic Activation: RAT, LIVER, S-9, AROCLOR 1254 (10%), Method: PREINCUBATION
  mutagenic call: inactive; negative
Test System: CHINESE HAMSTER V-79, Strain/Indicator: V-79/6-THIOGUANINE, Metabolic Activation: NONE
  mutagenic call: inactive; negative
Test System: CHINESE HAMSTER V-79, Strain/Indicator: V-79/OUABAIN, Metabolic Activation: NONE
  mutagenic call: inactive; negative

## CC(=O)OCC1=CO[C@@H](OC(=O)CC(C)C)[C@H]2C1=C[C@H](OC(=O)CC(C)C)[C@]21CO1
Test System: AMES SALMONELLA TYPHIMURIUM, Strain/Indicator: TA98, Metabolic Activation: NONE, Method: STANDARD PLATE
  mutagenic call: inactive; negative
Test System: AMES SALMONELLA TYPHIMURIUM, Strain/Indicator: TA98, Metabolic Activation: RAT, LIVER, S-9, AROCLOR 1254, Method: STANDARD PLATE
  mutagenic call: inactive; negative
Test System: AMES SALMONELLA TYPHIMURIUM, Strain/Indicator: TA100, Metabolic Activation: NONE, Method: STANDARD PLATE
  mutagenic call: inactive; negative
Test System: AMES SALMONELLA TYPHIMURIUM, Strain/Indicator: TA100, Metabolic Activation: RAT, LIVER, S-9, AROCLOR 1254, Method: STANDARD PLATE
  mutagenic call: active; positive
Test System: AMES SALMONELLA TYPHIMURIUM, Strain/Indicator: TA1535, Metabolic Activation: NONE, Method: STANDARD PLATE
  mutagenic call: inactive; negative
Test System: AMES SALMONELLA TYPHIMURIUM, Strain/Indicator: TA1535, Metabolic Activation: RAT, LIVER, S-9, AROCLOR 1254, Method: STANDARD PLATE
  mutagenic call: inactive; negative
Test System: AMES SALMONELLA TYPHIMURIUM, Strain/Indicator: TA1537, Metabolic Activation: NONE, Method: STANDARD PLATE
  mutagenic call: inactive; negative
Test System: AMES SALMONELLA TYPHIMURIUM, Strain/Indicator: TA1537, Metabolic Activation: RAT, LIVER, S-9, AROCLOR 1254, Method: STANDARD PLATE
  mutagenic call: inactive; negative
Test System: E. COLI, Strain/Indicator: WP2, Metabolic Activation: NONE, Method: STANDARD PLATE
  mutagenic call: inactive; negative
Test System: E. COLI, Strain/Indicator: WP2, Metabolic Activation: RAT, LIVER, S-9, AROCLOR 1254, Method: STANDARD PLATE
  mutagenic call: inactive; negative
Test System: E. COLI, Strain/Indicator: WP2 UVRA, Metabolic Activation: NONE, Method: STANDARD PLATE
  mutagenic call: active; positive
Test System: E. COLI, Strain/Indicator: WP2 UVRA, Metabolic Activation: RAT, LIVER, S-9, AROCLOR 1254, Method: STANDARD PLATE
  mutagenic call: inactive; negative
